What was measured:
JNK3 = JNK3 (Homo sapiens, UniProt P53779); assay: Biochemical JNK3 kinase inhibition (Z'-lyte format); details: Table 2
phosphorylation of p38 = assay: High-throughput microscopy, phosphorylation of p38; type: cell-based; details: Homo sapiens, A-375, A375 cells, anisomycin stimulation, read-out: Cellular EC50 pP38
Experimental: (§1) A375 cells were stimulated with anisomycin (FIGS. 14A and 14C to 14F), IGF-1 (FIG. 14B), IL-6 (FIG. 14G), and TNF-α (FIG. 14H) for sixty minutes. The output of multiple signaling pathways was measured using high throughput microscopy at multiple concentrations of four JNK inhibitors and a control compound specific to each pathway DMSO (FIG. 14A), MK2206 (allosteric Akt inhibitor, Haoyuan Chemexpress Co., Limited. Hirai, et al., 2010) (FIG. 14B), PD0325901 (allosteric Mek inhibitor, Haoyuan Chemexpress Co., Limited. Barrett, et al., 2008) (FIGS. 14C and 14D), SB239063 (ATP-competitive p38 inhibitor, Haoyuan Chemexpress Co., Limited. Underwood et al., 2000) (FIGS. 14E and 14F), KIN001-040 (ATP-competitive JAK1,2,3 inhibitor, Haoyuan Chemexpress Co., Limited. Thompson et al., 2002) (FIG. 14G), and KIN001-208 (IKK inhibitor VIII, Haoyuan Chemexpress Co., Limited., Murata, et al., 2004) (FIG. 14H).
(§2) Cells were plated at 7500 cells/well in 96-well microscopy plates (Corning) in recommended media for 24 hours, and then starved in media lacking serum for 16 hours. Cells were pre-treated for 180 minutes with 10-fold stock solutions of JNK inhibitors and for 10 min with control compounds MK2206, PD0325901, SB239063, KIN040, and KIN208 and treated with 10-fold stock solutions of IGF-1, IL-6, TNF-α (all PeproTech), or anisomycin for 60 minutes. Cells were fixed in 2% paraformaldehyde for 10 min at room temperature and washed with PBS-T (Phosphate Buffered Saline, 0.1% Tween 20). Cells were permeabilized in methanol for 10 min at room temperature, washed with PBS-T, and blocked in Odyssey Blocking Buffer (LI-COR Biosciences) for 1 hour at room temperature. Cells were incubated overnight at 4° C. with antibody specific for Erk1/2(pT202/pY204), Akt(pS473), c-Jun(pS73), pP38(T180/Y182) and pSTAT3(Y705) (Cell Signaling Technology), pRSK1(S380) and pMSK1(S376) (Epitomics), and NF-κB (Santa Cruz Biotechnology) diluted 1:400 in Odyssey Blocking Buffer. Cells were washed three times in PBS-T and incubated with rabbit-specific secondary antibody labeled with Alexa Fluor 647 (Invitrogen) diluted 1:2000 in Odyssey Blocking Buffer. Cells were washed once in PBS-T and once in PBS and incubated in 250 ng/ml Hoechst 33342 (Invitrogen) and 1:1000 Whole Cell Stain (blue; Thermo Scientific) solution. Cells were washed twice with PBS and imaged in an imageWoRx high-throughput microscope (Applied Precision). Data were plotted using DataPflex. […]

phosphorylation of Msk1 = assay: High-throughput microscopy, phosphorylation of Msk1; type: cell-based; details: Homo sapiens, A-375, A375 cells, anisomycin stimulation, read-out: Cellular EC50 pMSK1
Experimental: A375 cells were stimulated with anisomycin (FIGS. 14A and 14C to 14F), IGF-1 (FIG. 14B), IL-6 (FIG. 14G), and TNF-α (FIG. 14H) for sixty minutes.
Cells were fixed in 2% paraformaldehyde for 10 min at room temperature and washed with PBS-T (Phosphate Buffered Saline, 0.1% Tween 20). Cells were permeabilized in methanol for 10 min at room temperature, washed with PBS-T, and blocked in Odyssey Blocking Buffer (LI-COR Biosciences) for 1 hour at room temperature. Cells were incubated overnight at 4° C. with antibody specific for Erk1/2(pT202/pY204), Akt(pS473), c-Jun(pS73), pP38(T180/Y182) and pSTAT3(Y705) (Cell Signaling Technology), pRSK1(S380) and pMSK1(S376) (Epitomics), and NF-κB (Santa Cruz Biotechnology) diluted 1:400 in Odyssey Blocking Buffer. […] Cells were washed twice with PBS and imaged in an imageWoRx high-throughput microscope (Applied Precision). Data were plotted using DataPflex.

[1] = tested on: NF-kB nuclear translocation; assay: High-throughput microscopy, NF-kB nuclear translocation; type: cell-based; details: Homo sapiens, A-375, A375 cells, TNF-α stimulation, read-out: Cellular EC50 NF-kB
Experimental: as §1, §2

HIPK4 = molecular target: T1, HIPK4 (Homo sapiens, UniProt Q8NE63); assay: HIPK4 follow-up enzymatic assay; type: biochemical; details: follow-up enzymatic assay (FIG. 12)
T1 sequence (Q8NE63 1-616): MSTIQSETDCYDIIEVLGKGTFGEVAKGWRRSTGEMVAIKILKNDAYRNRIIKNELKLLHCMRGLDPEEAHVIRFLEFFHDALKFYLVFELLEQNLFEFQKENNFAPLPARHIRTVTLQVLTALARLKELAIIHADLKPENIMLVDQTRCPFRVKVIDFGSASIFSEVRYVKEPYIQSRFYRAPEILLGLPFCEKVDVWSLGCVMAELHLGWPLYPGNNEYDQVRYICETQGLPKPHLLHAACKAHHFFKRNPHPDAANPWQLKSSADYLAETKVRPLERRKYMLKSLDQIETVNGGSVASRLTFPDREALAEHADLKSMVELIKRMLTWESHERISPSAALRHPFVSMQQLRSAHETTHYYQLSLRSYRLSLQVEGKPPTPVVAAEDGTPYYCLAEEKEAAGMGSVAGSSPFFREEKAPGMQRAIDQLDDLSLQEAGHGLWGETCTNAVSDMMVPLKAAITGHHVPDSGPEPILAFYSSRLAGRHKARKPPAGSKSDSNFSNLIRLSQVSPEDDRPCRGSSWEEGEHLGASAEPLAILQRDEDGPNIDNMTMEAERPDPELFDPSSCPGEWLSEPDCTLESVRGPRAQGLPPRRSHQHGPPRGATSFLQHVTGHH
Description: This high in vitro selectivity however differed markedly from the large number of targets detected by KiNativ.

JNK3, sequence (P53779 whole entry): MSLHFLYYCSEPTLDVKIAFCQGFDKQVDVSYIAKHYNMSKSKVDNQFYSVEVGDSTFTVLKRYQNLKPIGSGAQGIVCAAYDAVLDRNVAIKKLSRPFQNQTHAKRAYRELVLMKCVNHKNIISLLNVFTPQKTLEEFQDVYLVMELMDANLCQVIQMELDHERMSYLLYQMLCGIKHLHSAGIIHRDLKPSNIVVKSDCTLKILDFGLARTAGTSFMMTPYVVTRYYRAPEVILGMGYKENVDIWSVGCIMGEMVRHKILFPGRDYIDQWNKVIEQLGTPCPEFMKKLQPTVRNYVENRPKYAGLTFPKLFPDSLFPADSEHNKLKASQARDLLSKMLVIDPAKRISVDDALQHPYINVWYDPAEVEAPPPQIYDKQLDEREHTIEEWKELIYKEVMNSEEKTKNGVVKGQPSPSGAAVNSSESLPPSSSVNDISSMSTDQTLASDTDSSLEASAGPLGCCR

IC50 (JNK3) | EC50 (phosphorylation of p38) | EC50 (phosphorylation of Msk1) | EC50 [1] | IC50 (HIPK4) | SMILES
11 nM | > 10 µM | > 10 µM | > 10 µM | 0.0571 µM | CN(C)C/C=C/C(=O)Nc1cccc(C(=O)Nc2ccc(Nc3nccc(/C(C#N)=C4\Nc5ccccc5S4)n3)cc2)c1 [JNK-IN-12]
 | > 10 µM | > 10 µM | > 10 µM |  | Cc1cc(NC(=O)c2cccc(NC(=O)/C=C/CN(C)C)c2)ccc1Nc1nccc(-c2cccnc2)n1 [JNK-IN-8]
